“Also recorded” adds a separate entry of the source. Where two headings read alike, the source gives them in different places.
Experiments:
[1] = tested on: Sarcoma 180
Description: The control lane (Table A) indicates separate inoculation of nine mice with B-16 melanoma and sarcoma 180.
Anti-tumor activity of the newly synthesized compounds and the established drugs (as positive controls) against solid tumors (B-16 melanoma and sarcoma 180) was tested in BD2 F1 mice. Tumor (about 2.5×10^6 cells) was inoculated subcutaneously (s.c.). Treatment with the drug started on day 4 after inoculation. The drug was injected intraperitoneously (i.p) daily (QD) for five days. Control mice received the same volume (50 μl) of the solvent vehicle (Dinso) as the drug-treated animals. Tumor size was evaluated every few days using a caliper for both the control and the treated group. Average body weight changes were recorded daily. Any lethality due to high dose drug toxicity or due to tumor progression was also recorded.
(§1) Schedule: QD × 5. I.P. started day 4

[2] = camptothecin, background; cited from earlier work
[3] = tested on: B-16 melanoma; assay type: in vivo, BD2 F1 mice
Description: Average body weight changes were recorded daily.
Tumor: B16 Melanoma Drug A = Camptothecin
Inoculation: 2 × 10^6 cells. S.C.
as §1

[4] = tested on: topoisomerase I and DNA; conditions: camptothecin, literature; cited from earlier work
[5] = tested on: topoisomerase I; conditions: camptothecin, literature; cited from earlier work
[6] = tested on: HL-60 cells (human promyelocytic leukemia); experiment: Cytotoxicity, XTT assay, HL-60 cell growth, 72 hr exposure; assay type: cell-based; conditions: for IC50: read-out: Inhibitory Concentrations IC50
Description: (§2) The synthesized compounds were evaluated for their cytotoxic effects on HL-60 (human promyelocytic leukemia) and 833K cells. The assay was conducted in 96-well microplates. The compounds were serially diluted in 4 to 6 steps with dimethylsulfoxide and added to cell incubation medium (RPMI 1640 containing 10% fetal. […]) at the final concentration of 1.0% dimethylsulfoxide in the medium. The cytotoxicity of the compounds were determined by the XTT-microculture tetrazolium assay: 2',3'-bis(2-methoxy-4-nitro-5-sulfophenyl)-3-[(phenylamino)carbonyl]-2H-tetrazolium hydroxide (XTT) was prepared at 1 mg/mL in prewarmed (37° C.) medium without serum. Phenazine methosulfate (PMS) and fresh XTT were mixed together to obtain 0.075 mM PMS-XTT solution (25 mL of the stock with 5 mg PMS added per 5 mL of 1 mg/mL XTT). Fifty microliters of this mixture were added to each well of the cell culture after 72 hours exposure to the testing compound. After incubation at 37° C. for 6 hours, the absorbance was determined at 450 nm and 630 nm with a microplate reader (EL 340, Bio-Tek Instruments, Inc., Winooski, Vt.). THe median-effect inhibitory concentration (IC50) was determined from a medium-effect plot using computer software for the purpose.
(§3) The results of the assay of cytotoxicity towards HL-60 and 833K cells of several analogues of camptothecin prepared in accord with the invention are illustrated in the accompanying Tables I and II, along with comparison data for native camptothecin. The data shown indicate that the camptothecin analogues prepared by the new methods provided by the invention have significant cytotoxic activity against cancer cells. […]

[7] = tested on: 833K cells; experiment: Cytotoxicity, XTT assay, 833K cell growth, 72 hr exposure; assay type: cell-based; conditions: Homo sapiens, 72 h
Description: as §2, §3

[8] = tested on: topoisomerase-I; experiment: Inhibition of topoisomerase-I activity (in words); assay type: biochemical
[9] = Cytotoxicity of compound 33 (in words); assay type: cell-based; conditions: relative to camptothecin
[10] = Reactivity with thiophenol in dichloromethane
From the text: (For a related example of thiophenol addition to α-methylene-γ-lactones, see: Marshall, J. A., et al., J. Org. Chem., 47, 699 (1982).) NMR analysis of the crude reaction mixture indicated formation of the expected adducts 58 and 59.

[11] = Sarcoma 180, 4 mg/kg i.p. QD × 5, day 7
[12] = B-16 melanoma, 4 mg/kg i.p. QD × 5, day 7
[13] = Table I, HL-60 (head HL-6), 72 hr, XTT
[14] = B-16 melanoma, 10 mg/kg i.p. QD × 5, day 7
[15] = B-16 melanoma, 30 mg/kg i.p. QD × 5, day 7

## CC[C@@]1(O)C(=O)OCc2c1cc1n(c2=O)Cc2cc3ccccc3nc2-1 [Camptothecin]
[1]; [11]
  AWC (average weight change): -0.9 gm
  Ave Tumor Volume (T/C): 0.634
[1]; Sarcoma 180, 4 mg/kg, day 7
  AVERAGE TUMOR VOLUME: 0.104 CM^3
  DEATHS (D/L): 0/2
  PERCENT OF CONTROL (tumor volume): 63.4%
[1]; Sarcoma 180, 4 mg/kg, day 14
  AVERAGE TUMOR VOLUME: 0.080 CM^3
  AWC (average weight change): +0.8 GM
  DEATHS (D/L): 0/2
  PERCENT OF CONTROL (tumor volume): 39.4%
[1]; sarcoma 180, 4 mg/kg
  average weight loss: 0.9 gm
  tumor volume decrease: 36%
[2]
  toxicity: High toxicity
[3]; B16 melanoma, 4 mg/kg, day 7
  AVERAGE TUMOR VOLUME: 0.113 CM^3
  DEATHS (D/L): 0/2
  PERCENT OF CONTROL (tumor volume): 59.5%
[3]; B16 melanoma, 4 mg/kg, day 14
  AVERAGE TUMOR VOLUME: 3.500 CM^3
  AWC (average weight change): +2.4 GM
  DEATHS (D/L): 0/2
  PERCENT OF CONTROL (tumor volume): 109.8%
[3]; B-16 melanoma, 4 mg/kg
  average weight loss: 1.8 gm
  tumor volume decrease: 40%
[3]; [12]
  AWC (average weight change): -1.8 gm
  Ave Tumor Volume (T/C): 0.595
[4]
  binding to the enzyme or DNA target in isolation: binds neither to the enzyme nor to its DNA target in isolation
[5]
  inhibition of topoisomerase I on DNA unwinding: inhibits the action of topoisomerase I on DNA unwinding; also recorded: reversible with heat, high salt concentrations and high dilution
[6]; Homo sapiens, HL-60, 72 h, read-out: Inhibitory Concentrations IC70, Table I, HL-60 (head HL-6), 72 hr, XTT
  IC70: 12 nM
[6]; Homo sapiens, HL-60, 72 h, read-out: Inhibitory Concentrations IC70, Table II, HL-60, 72 hr, XTT
  IC70: 12 nM
[6]; Homo sapiens, HL-60, 72 h, read-out: Inhibitory Concentrations IC95, Table I, HL-60 (head HL-6), 72 hr, XTT
  IC95: 25 nM
[6]; Homo sapiens, HL-60, 72 h, read-out: Inhibitory Concentrations IC95, Table II, HL-60, 72 hr, XTT
  IC95: 25 nM
[6]; [13]
  Inhibitory Concentrations IC70: 0.006
  Inhibitory Concentrations IC95: 0.022
  IC50: 3.5 nM
[6]; Table II, HL-60, 72 hr, XTT, read-out: Inhibitory Concentrations IC70
  IC70: 6 nM
[6]; Table II, HL-60, 72 hr, XTT, read-out: Inhibitory Concentrations IC95
  IC95: 22 nM
[6]; Table I, HL-60 (head HL-6), 72 hr, XTT, listed as WS-1
  IC50: 9.4 nM
[6]; Table II, HL-60, 72 hr, XTT
  IC50: 3.5 nM
[6]; Table II, HL-60, 72 hr, XTT, listed as WS-1
  IC50: 9.4 nM
[7]; read-out: Inhibitory Concentrations IC50
  IC50: 15.3 nM
[7]; read-out: Inhibitory Concentrations IC70
  IC70: 43 nM
[7]; read-out: Inhibitory Concentrations IC95
  IC95: 649 nM

## C=C1C(=O)OCc2c1cc1n(c2=O)Cc2c-1nc1ccc(O)cc1c2CC [Compound 33, 7-Ethyl-10-hydroxy-18-nor-anhydrocamptothecin]
[1]; Sarcoma 180, 10 mg/kg, day 7
  DEATHS (D/L): 0/2
[1]; Sarcoma 180, 10 mg/kg, day 14
  DEATHS (D/L): 0/2
[1]; Sarcoma 180, 30 mg/kg, day 7, death on day 4 after treatment, listed as 18-nor-20-dehydro-7-ethyl-10-hydroxycamptothecin
  DEATHS (D/L): one of the two subjects died after day 4 of treatment
[1]; Sarcoma 180, 30 mg/kg, day 7, death on day 4 after treatment, listed as 20-CH2 -7-Et-10-OH-CPT
  DEATHS (D/L): One of two mice died on day 4 after treatment
[1]; Sarcoma 180, 30 mg/kg, day 7, death on day 4 after treatment, listed as B
  DEATHS (D/L): 1/2
[1]; Sarcoma 180, 30 mg/kg, day 14
  DEATHS (D/L): 0/1
[3]; B16 melanoma, 10 mg/kg, day 7
  AVERAGE TUMOR VOLUME: 0.163 CM^3
  PERCENT OF CONTROL (tumor volume): 85.8%
[3]; B16 melanoma, 10 mg/kg, day 14
  AVERAGE TUMOR VOLUME: 2.320 CM^3
  AWC (average weight change): +2.7 GM
  PERCENT OF CONTROL (tumor volume): 72.7%
[3]; B16 melanoma, 30 mg/kg, day 7
  AVERAGE TUMOR VOLUME: 0.036 CM^3
  PERCENT OF CONTROL (tumor volume): 18.9%
[3]; B16 melanoma, 30 mg/kg, day 14
  AVERAGE TUMOR VOLUME: 2.925 CM^3
  AWC (average weight change): +2.7 GM
  PERCENT OF CONTROL (tumor volume): 91.7%
[3]; B-16 melanoma and sarcoma 180 together
  activity compared with authentic camptothecin: compares favorably with that of authentic camptothecin
[3]; B-16 melanoma, 10 mg/kg
  decreased body weight: 1.4 gm
  tumor volume decrease: 14%
[3]; [14]
  AWC (average weight change): -1.4 gm
  Ave Tumor Volume (T/C): 0.858
[3]; B-16 melanoma, 30 mg/kg
  decreased body weight: 1.9 gm
  tumor volume decrease: 81%
[3]; [15]
  AWC (average weight change): -1.9 gm
  Ave Tumor Volume (T/C): 0.189
[8]
  inhibition of topoisomerase-I activity: potent camptothecin-like inhibition of topoisomerase-I activity; also recorded: still retaining enzyme inhibitory function
[9]
  cytotoxicity: significantly reduced levels relative to camptothecin
[10]
  reaction with thiophenol: consumption of starting material

Reference: US5525731A, “Camptothecin analogues and methods of preparation thereof” (priority 1994, dated 1996)
